Measured values: PubChem BioAssay AID1963874 (Molecular Pharmacology Branch, DTP, NCI, 2024)

System: 253994-281-T-J1-PDC KRAS-mutant spheroids with HUVEC/MSC, viability
Experiment: Anticancer human tumor 253994-281-T-J1-PDC patient-derived colorectal carcinoma cell line growth inhibition [KRAS2]
Conditions: for IC50: curve of first compound; for viability, T/C: stronger effect = lower value
Summary of the method: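 Combination screen of spheroid viability in tumor-cell co-cultures with endothelial (HUVEC) and mesenchymal stem cell stroma. Each agent was tested in half-log dilutions, topping at clinical Cmax or at 10 microM without a known Cmax.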

[1] = second compound 0.0316 µM, first compound 0.0316 µM
[2] = second compound 0.0316 µM, first compound 0.1 µM
[3] = second compound 0.0316 µM, first compound 0.316 µM
[4] = second compound 0.0316 µM, first compound 1 µM
[5] = second compound 0.0316 µM, first compound 3.16 µM
[6] = second compound 0.1 µM, first compound 0.0316 µM
[7] = second compound 0.1 µM, first compound 0.1 µM
[8] = second compound 0.1 µM, first compound 0.316 µM
[9] = second compound 0.1 µM, first compound 1 µM
[10] = second compound 0.1 µM, first compound 3.16 µM
[11] = second compound 0.316 µM, first compound 0.0316 µM
[12] = second compound 0.316 µM, first compound 0.1 µM
[13] = second compound 0.316 µM, first compound 0.316 µM
[14] = second compound 0.316 µM, first compound 1 µM
[15] = second compound 0.316 µM, first compound 3.16 µM
[16] = second compound 1 µM, first compound 0.0316 µM
[17] = second compound 1 µM, first compound 0.1 µM
[18] = second compound 1 µM, first compound 0.316 µM
[19] = second compound 1 µM, first compound 1 µM
[20] = second compound 1 µM, first compound 3.16 µM
[21] = second compound 3.16 µM, first compound 0.0316 µM
[22] = second compound 3.16 µM, first compound 0.1 µM
[23] = second compound 3.16 µM, first compound 0.316 µM
[24] = second compound 3.16 µM, first compound 1 µM
[25] = second compound 3.16 µM, first compound 3.16 µM
[26] = second compound 0.0316 µM, first compound 10 µM
[27] = second compound 0.1 µM, first compound 10 µM
[28] = second compound 0.316 µM, first compound 10 µM
[29] = second compound 1 µM, first compound 10 µM
[30] = second compound 3.16 µM, first compound 10 µM
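Further: spheroids exposed to agents for seven days before readout.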
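Wherever viability, T/C is given: percent of DMSO vehicle control viability.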

Structure (SMILES) | IC50 (second compound 0.0316 µM) [µM] | IC50 (second compound 0.1 µM) [µM] | IC50 (second compound 0.316 µM) [µM] | IC50 (second compound 1 µM) [µM] | IC50 (second compound 3.16 µM) [µM] | viability, T/C [1] [%] | viability, T/C [2] [%] | viability, T/C [3] [%] | viability, T/C [4] [%] | viability, T/C [5] [%] | viability, T/C [6] [%] | viability, T/C [7] [%] | viability, T/C [8] [%] | viability, T/C [9] [%] | viability, T/C [10] [%] | viability, T/C [11] [%] | viability, T/C [12] [%] | viability, T/C [13] [%] | viability, T/C [14] [%] | viability, T/C [15] [%] | other results
CC1COCCN1c1cc(-c2ccnn2C)c2ccnc(-c3ccn[nH]3)c2n1 (stereo not given) + C=CC(=O)N1CCN(c2nc(OCC3CCCN3C)nc3c2CCN(c2cccc4cccc(C)c24)C3)CC1CC#N | > 3.16 | > 3.16 | > 3.16 | > 3.16 | 0.129 | 101 | 87.1 | 67.6 | 60.5 | 64.5 | 93.1 | 90.7 | 59.7 | 66.9 | 60.6 | 93 | 83 | 53.8 | 55.7 | 62.9 | viability, T/C (second compound 0.0316 µM, first compound 0.01 µM): 115%; viability, T/C (second compound 0.1 µM, first compound 0.01 µM): 94.1%; viability, T/C (second compound 0.316 µM, first compound 0.01 µM): 117%; viability, T/C (second compound 1 µM, first compound 0.01 µM): 101%; viability, T/C [16]: 94.4%; viability, T/C [17]: 75.5%; viability, T/C [18]: 48.8%; viability, T/C [19]: 51%; viability, T/C [20]: 59.2%; viability, T/C (second compound 3.16 µM, first compound 0.01 µM): 80.2%; viability, T/C [21]: 90%; viability, T/C [22]: 53.3%; viability, T/C [23]: 30.6%; viability, T/C [24]: 37.8%; viability, T/C [25]: 47.8%
CC1OCC2(CCN(c3cnc(Sc4ccnc(N)c4Cl)c(N)n3)CC2)C1N (stereo not given) + C=CC(=O)N1CCN(c2nc(OCC3CCCN3C)nc3c2CCN(c2cccc4cccc(C)c24)C3)CC1CC#N | 8.57 | > 10 | 6.83 | 5.05 | 0.0824 | 112 | 91.7 | 87.5 | 81.4 | 65.4 | 87.4 | 100 | 76.3 | 78.5 | 66.1 | 92.3 | 100 | 84.3 | 72.6 | 60.9 | viability, T/C [26]: 45.3%; viability, T/C [27]: 50.4%; viability, T/C [28]: 44.9%; viability, T/C [16]: 79.3%; viability, T/C [17]: 82.3%; viability, T/C [18]: 76.7%; viability, T/C [19]: 67.4%; viability, T/C [20]: 56.5%; viability, T/C [29]: 41.4%; viability, T/C [21]: 57.2%; viability, T/C [22]: 48.5%; viability, T/C [23]: 39.8%; viability, T/C [24]: 27%; viability, T/C [25]: 20.6%; viability, T/C [30]: 9.67%
CCNC(=O)CC1N=C(c2ccc(Cl)cc2)c2cc(OC)ccc2-n2c(C)nnc21 (stereo not given) + C=CC(=O)N1CCN(c2nc(OCC3CCCN3C)nc3c2CCN(c2cccc4cccc(C)c24)C3)CC1CC#N | > 10 | > 10 | > 10 | > 10 | 0.865 | 101 | 99.7 | 88.3 | 97 | 107 | 92.2 | 110 | 96.9 | 107 | 97.9 | 107 | 104 | 106 | 91.4 | 92.8 | viability, T/C [26]: 85.9%; viability, T/C [27]: 86.5%; viability, T/C [28]: 90.7%; viability, T/C [16]: 98.4%; viability, T/C [17]: 108%; viability, T/C [18]: 95.8%; viability, T/C [19]: 91%; viability, T/C [20]: 93%; viability, T/C [29]: 85%; viability, T/C [21]: 84%; viability, T/C [22]: 96.2%; viability, T/C [23]: 83.2%; viability, T/C [24]: 25.9%; viability, T/C [25]: 65.9%; viability, T/C [30]: 43.8%
Cn1nccc1Nc1nccc(-c2cc3c(s2)C(C)(C)N(CCN2CCOCC2)C3=O)n1 + C=CC(=O)N1CCN(c2nc(OCC3CCCN3C)nc3c2CCN(c2cccc4cccc(C)c24)C3)CC1CC#N | 4.45 | 2.63 | 2.15 | 3.04 | 0.181 | 92.7 | 99 | 89.1 | 72.4 | 62.2 | 92.3 | 96.3 | 88.7 | 73.5 | 45.6 | 95.5 | 103 | 96.7 | 67.4 | 43.1 | viability, T/C [26]: 28%; viability, T/C [27]: 29.4%; viability, T/C [28]: 30.4%; viability, T/C [16]: 107%; viability, T/C [17]: 98.9%; viability, T/C [18]: 73.9%; viability, T/C [19]: 80.3%; viability, T/C [20]: 44.6%; viability, T/C [29]: 27.4%; viability, T/C [21]: 64%; viability, T/C [22]: 53.6%; viability, T/C [23]: 45.2%; viability, T/C [24]: 20.8%; viability, T/C [25]: 4.92%; viability, T/C [30]: 1.02%
